Results: patent US7884234B2, “N-phenyloxamide derivatives” (Institute of Medicinal Molecular Design, inc., priority 2006, dated 2011)

Assays:
Type in all cases: biochemical
recombinant human PAI-1 [1] = biological target: T1, recombinant human PAI-1 (Homo sapiens, UniProt P05121); experiment: Test Example 1: human PAI-1 inhibitory activity (tPA fluorogenic substrate assay, pH7.5 Tris buffer); conditions: for inhibition at 5 µM: pH 7.5, compound 5 μM; for inhibition at 5 µM / inhibition at 10 µM / inhibition at 25 µM: read-out: Inhibition Rate of Human PAI-1 Activity (%); for inhibition at 10 µM: pH 7.5, compound 10 μM; for inhibition at 25 µM: pH 7.5, compound 25 μM
T1 construct: purchased Molecular Innovations, Inc
T1 sequence (P05121 24-402): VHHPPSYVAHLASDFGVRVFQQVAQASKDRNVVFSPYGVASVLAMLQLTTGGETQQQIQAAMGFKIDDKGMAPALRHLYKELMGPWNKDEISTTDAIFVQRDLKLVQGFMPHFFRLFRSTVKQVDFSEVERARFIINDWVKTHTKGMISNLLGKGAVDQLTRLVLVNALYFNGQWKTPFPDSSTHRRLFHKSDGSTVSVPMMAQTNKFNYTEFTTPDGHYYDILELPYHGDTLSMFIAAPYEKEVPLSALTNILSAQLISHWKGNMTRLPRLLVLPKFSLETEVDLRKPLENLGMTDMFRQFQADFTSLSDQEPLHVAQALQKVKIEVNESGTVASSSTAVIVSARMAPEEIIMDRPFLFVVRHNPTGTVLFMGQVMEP
Description: <Composition of pH7.5 Tris Buffer)
0.01% Tween80 (SIGMA-ALDRICH Corporation)

recombinant human PAI-1 [2] = biological target: T1, recombinant human PAI-1; experiment: Test Example 4: human PAI-1 inhibitory activity (amount of PAI-1 bound to plate-coated tPA, ELISA); conditions: compound 0.1 μM; PAI-1 50 ng/ml bound to coated tPA; read-out: Inhibition Rate of Human PAI-1 Activity (%)
Procedure: 100 μl of tPA solution where one-chain recombinant tPA (hereinafter refereed to as tPA; American diagnostica, inc.) diluted with Buffer A to achieve a concentration of 10 μg/ml was added to each well of 96-well plate (Nunc Maxisorp), incubated for one night at […] to coated with tPA. Then, after suction of tPA solution from the 96-well plate, rinsed successively with Buffer A and Buffer B.
To Buffer B, solutions of the present application compound dissolved with DMSO (final DMSO concentration: 0.2%) and recombinant human PAI-1 (Molecular Innovations, Inc.) were added and blended so that the final concentrations would be 0.1 to 3.0 μM and 50 ng/ml respectively, and were incubated for 15 minutes on ice. These mixed solutions were added to rinsed 96-well plates at 100 μl/well, and incubated for 60 minutes at room temperature. To prepare calibration curve, PAI-1 solutions without the present application compound (solutions where the final concentrations being 100, 50, 25, 12.5, 6.25, 3.13, 1.56 ng/ml PAI-1) were added at 100 μl/well, and were incubated for 60 minutes at room temperature, as standard.
After incubation, the reaction mixture was suction removed, and rinsed each well with Wash Buffer. Next, anti-human PAI-1 monoclonal antibody (PROGEN Inc.) diluted with Buffer C to be 3.0 μg/ml was added to the 96-well plate at 100 μl/well, and incubated for 1 hour at room temperature. After rinsing each well with Wash Buffer, alkaline phosphatase-labeled goat anti-mouse IgG (H+L) (Jackson ImmunoResearch, Inc.) diluted with Buffer D to be 0.12 μg/ml was added at 100 μl/well, and incubated for 1 hour at room temperature. After rinsing each well with Wash Buffer, 1.0 mg/ml p-Nitrophenyl Phosphate (SIGMA) was added to the 96-well plate at 100 μl/well to start the reaction. After 30 to 60 minutes, 25 μl of 0.5 N NaOH was added to stop the reaction, and the absorbance was measured at 405 nm using a multiplate reader (GENios; TECAN G.M.B.H.).
Based on the calibration curve prepared from the standard wells, amounts of PAI-1 bound to tPA in the wells treated with the present application compound were calculated, and the PAI-1 inhibition rates by the present application compounds were obtained by the following equation. [PAI-1 Inhibition Rate (%)]=[1-(amount of PAI-1 bound to tPA on the well treated with the present application compound)/(amount of PAI-1 bound to tPA on the well treated with PAI-1 solution without present application compound (solution with the final concentration of 50 ng/ml PAI-1)]×100 <Composition of Buffer A> 0.1 M Tris-HCl-150 150 mM NaCl pH 7.7 <Composition of Buffer B> 50 mM sodium phosphate 0.1 M NaCl 1 mM EDTA pH 6.6 <Composition of Buffer C> 50 mM sodium phosphate 100 mM NaCl pH 7.4 <Composition of Buffer D> 0.01 M Tris-HCl 0.25 M NaCl pH 8.0 <Composition of Wash Buffer> 0.05% Tween 20 0.1% BSA in Buffer A <Composition of p-Nitrophenyl Phosphate Solution> 1 M Diethanolamine 0.5 mM MgCl2 p-Nitrophenyl phosphate pH 9.8

recombinant human PAI-1 [3] = biological target: T1, recombinant human PAI-1; experiment: Test Example 2: human PAI-1 inhibitory activity (tPA fluorogenic substrate assay, pH7.4 HEPES buffer); conditions: for IC50: pH7.4 HEPES buffer, obtained from Table 5 results; for inhibition at 3 µM: pH 7.4, read-out: Inhibition Rate of Human PAI-1 Activity (%)
Procedure: (§1) Except using the pH7.4 HEPES buffer instead of pH7.5 Tris buffer, and the change of incubation time from 15 minutes to 10 minutes of the mixed solution added by two-chain tPA solution, tests were carried out similarly to the Test Example 1.
<Compotion of pH7.4 HEPES Buffer>
0.1% Polyethylene glycol 8,000 (Hampton Research Corporation)
2 mM Dimethyldecylphoshine oxide [Apo-10] (Fluka Corporation)

recombinant rat PAI-1 = biological target: T2, recombinant rat PAI-1 (Rattus norvegicus, UniProt P20961); experiment: Test Example 3: rat PAI-1 inhibitory activity (tPA fluorogenic substrate assay, pH7.4 HEPES buffer); conditions: pH7.4 HEPES buffer; obtained from Table 7 results
T2 construct: purchased Molecular Innovations, Inc
T2 sequence (P20961 24-402): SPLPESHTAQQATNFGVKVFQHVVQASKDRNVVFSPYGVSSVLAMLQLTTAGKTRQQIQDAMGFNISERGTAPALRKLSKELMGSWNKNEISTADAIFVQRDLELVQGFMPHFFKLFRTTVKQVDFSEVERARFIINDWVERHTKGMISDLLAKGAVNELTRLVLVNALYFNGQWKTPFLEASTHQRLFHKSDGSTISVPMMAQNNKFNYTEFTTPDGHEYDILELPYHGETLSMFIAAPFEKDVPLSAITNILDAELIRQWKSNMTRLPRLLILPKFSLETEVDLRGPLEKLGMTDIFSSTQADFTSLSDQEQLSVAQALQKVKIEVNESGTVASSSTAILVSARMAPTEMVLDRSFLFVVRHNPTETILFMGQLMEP
Procedure: as §1

Row | Structure (SMILES) | inhibition at 5 µM (recombinant human PAI-1 [1]) | inhibition at 10 µM (recombinant human PAI-1 [1]) | inhibition at 0.1 µM (recombinant human PAI-1 [2]) | IC50 (recombinant human PAI-1 [3]) | IC50 (recombinant rat PAI-1) | also measured
1 | CC(C)(C)c1ccccc1N(C(=O)C(=O)O)c1ccccc1-c1ccc(OC(F)(F)F)cc1 [compound 37, N-[2-(tert-butyl)phenyl]-N-[4′-(trifluoromethoxy)biphenyl-2-yl]oxamic Acid] | 25% | 56% |  |  |  | inhibition at 25 µM (recombinant human PAI-1 [1]): 96%
2 | O=C(O)C(=O)N(Cc1ccccc1)c1ccc(-c2ccc(OC(F)(F)F)cc2)cc1 [compound 6, N-benzyl-N-[4′-(trifluoromethoxy)biphenyl-4-yl]oxamic Acid] | 6% | 12% |  |  |  | 
3 | O=C(O)C(=O)N(Cc1ccc(C(F)(F)F)cc1)c1ccc(-c2ccc(OC(F)(F)F)cc2)cc1 [compound 34, N-[4′-(trifluoromethoxy)biphenyl-4-yl]-N-[4-(trifluoromethyl)benzyl]oxamic Acid] | 15% | 38% |  |  |  | inhibition at 25 µM (recombinant human PAI-1 [1]): 81%
4 | CC(C)(C)c1ccc(CN(C(=O)C(=O)O)c2ccc(-c3ccc(C(F)(F)F)cc3)cc2)cc1 [compound 24, N-[4-(tert-butyl)benzyl]-N-[4′-(trifluoromethyl)phenyl-4-yl]oxamic Acid] |  |  |  |  |  | Inhibition Rate of Human PAI-1 Activity (%) (recombinant human PAI-1 [1]; compound 5 μM): 7%; Inhibition Rate of Human PAI-1 Activity (%) (recombinant human PAI-1 [1]; compound 10 μM): 35%; Inhibition Rate of Human PAI-1 Activity (%) (recombinant human PAI-1 [1]; compound 25 μM): 74%
5 | CC(C)(C)c1ccc(CN(C(=O)C(=O)O)c2cc(-c3ccc(OC(F)(F)F)cc3)cc(C(F)(F)F)c2)cc1 [compound 18, N-[4-(tert-butyl)benzyl]-N-[4′-(trifluoromethoxy)-5-(trifluoromethyl)biphenyl-3-yl]oxamic Acid] |  |  | 0% | 1250 nM | 1610 nM | 
6 | CCCOc1ccc(N(Cc2ccc(C(C)(C)C)cc2)C(=O)C(=O)O)c(-c2ccc(OC(F)(F)F)cc2)c1 [compound 78, N-[4-(tert-butyl)benzyl]-N-[5-propoxy-4′-(trifluoromethoxy)biphenyl-2-yl]oxamic Acid] |  |  | 0% | 1080 nM | 1840 nM | inhibition at 3 µM (recombinant human PAI-1 [3]): > 99%
7 | CCC(CC)Oc1ccc(N(Cc2ccc(C(C)(C)C)cc2)C(=O)C(=O)O)cc1-c1ccc(OC(F)(F)F)cc1 [compound 77, N-[4-(tert-butyl)benzyl]-N-[2-(1-ethylpropoxy)-4′-(trifluoromethoxy)biphenyl-5-yl]oxamic Acid] |  |  | 12% | 1040 nM | 1420 nM | inhibition at 3 µM (recombinant human PAI-1 [3]): > 99%
8 | CC(C)(C)c1ccc(CN(C(=O)C(=O)O)c2ccc(-c3ccc(OC(F)(F)F)cc3)cc2)cc1 [compound 8, N-[4-(tert-butyl)benzyl]-N-[4′-(trifluoromethoxy)biphenyl-4-yl]oxamic Acid] |  |  | 0% | 1630 nM | 3130 nM | 
